Results as given in paper PMC4052115 (Journal of immunology (Baltimore, Md. : 1950), 2014).

Key:
[1] = target: H-2K^b (K^b heavy chain with β2-microglobulin), recombinant, refolded (mouse | not stated); assay: circular dichroism thermal denaturation
[2] = test system: brain-derived CD8 T cells; assay: IFN-γ intracellular cytokine staining of brain-derived leukocytes; format: cell-based, C57BL/6 (B6) mice; settings: brain-derived cells of rJ-infected mice, day 7 p.i.
[3] = test system: brain-derived CD8 T cells; settings: ref [14]; cited from earlier work
DC2.4 cells = format: cell-based
[4] = Immunogenicity in preliminary experiments; settings: data not shown

Q600F peptide (heteroclitic S598 analogue), Aba-modified (from UniProt P22432 598-605)
Tm of the K^b/peptide complex [1]: 62.7 °C

RCYIFANI [Epitope Q600Y]
fraction of S598-primed CD8 T cells recognizing the variant peptide [2]: only a small fraction
fraction of responding T cells that recognized only the variant epitope [3]: ~ 35%

TSYKFESV [Epitope B8_20-27]
level of VacV-derived control peptide (DC2.4 cells): equivalently high levels

CSLWNGPHL [Epitope S510]
detection of peptide eluted from MHC complexes (DC2.4 cells): neither peptide was detectable

S598 peptide (native epitope), Aba-modified
Tm of the K^b/peptide complex [1]: 56.2 °C

RCEIFANI [Epitope Q600E]
immunogenicity [4]: not immunogenic
